This note sets out measurements from patent US7989654B2, “High purity bases of 3,3-diphenylpropylamino monoesters” (UCB Pharma GmbH, priority 2003, dated 2011).

Data set [1] can be described thus: Storage stability of fesoterodine base as oil and in polymer matrices. Type of data set: physicochemical. The settings on record: storage for 6 months at 5° C. Here is the method: While, for example, the free base of fesoterodine is decomposed as an oil after storage for 6 months at 5° C. to around 3-4%, a drop in concentration cannot be established or only established essentially to a lesser extent when fesoterodine is incorporated in matrices, which contain polar components. [table]

A short description of data set [2]: Stirring of fesoterodine base under distilled water, TLC of the aqueous phase. The format is physicochemical. As to conditions: covered with distilled water, stirred two days at room temperature. How it is done: Fesoterodine (107.7 mg (R)-2-(3-Diisopropylamino-1-phenylpropyl)-4-hydroxymethylphenyl isobutyric acid ester, B) is covered with a layer distilled water and stirred at room temperature. After two days of stirring, the reaction batch remains unchanged two-phase.

Regarding `CC(C)C(=O)Oc1ccc(CO)cc1[C@H](CCN(C(C)C)C(C)C)c1ccccc1` [free base of fesoterodine, (R)-2-[3-(1,1-diisopropylamino)-1-phenylpropyl]-4-(hydroxymethyl)phenyl isobutyrate], the “Decomposition during storage as an oil” value in data set [1] is recorded as 3-4%. Also, the “Organic material detectable in the aqueous phase by thin layer chromatography” value in data set [2] is given as “No organic material (B or E) could be detected”.
